Results on one compound are retold here after patent publication US20170368089A1, “COMPOSITION FOR PREVENTING OR TREATING COLITIS” (UNIVERSITY-INDUSTRY COOPERATION GROUP OF KYUNG HEE …, priority 2012, published 2017).

Experiment [1] deals with Myeloperoxidase (MPO). The experiment in a line: MPO activity of colon tissue (mouse MPO ELISA kit), TNBS colitis, first experiment. It is filed as in vivo, ICR male mice. The conditions noted are these: TNBS-treated mice, 10 mg/kg orally, 3 days. The procedure: Among the experimental groups, one group was set as a normal group, and for the experimental animals in other groups, colitis was induced with 2,4,6-trinitrobenzenesulfonic acid (TNBS). In detail, after lightly anesthetizing the experimental animals with ether, 0.1 ml of the solution prepared by mixing […] of 2,4,6-Trinitrobenzene sulfonic acid (NBS) solution with 50% ethanol was injected into the colon through the anus using a syringe having 1 ml volume and oval point, respectively; and then, the syringe was vertically picked up, and then, maintained for 30 seconds to induce the inflammation. Meanwhile, 0.1 ml of normal saline solution was orally administered to the normal group. Since then, from the next day, the sample dissolved in normal saline solution was orally administered in the volume that was decided in advance one time a day for 3 days. At the next day after completing the sample administration, the experimental animals were suffocated to death with carbon dioxide, the colon from appendix to the region just before the anus was removed from the colon region.
200 μl of lysis buffer was added to 100 mg of colon tissue, and then, the colon tissue was homogenized. Since then, the homogenized colon tissue was centrifuged under the conditions of 4° C. and 13000 rpm for 15 minutes, and then, the supernatant thereof was obtained. In the supernatant, the MPO activity was measured using a mouse MPO assay ELISA kit (Hbt HK210, USA). 100 μl of the supernatant was added in a 96 well plate, and then, reacted at room temperature for 1 hour. After completing the reaction, the plate was overturned and emptied; was repeatedly washed three times with 200 μl of washing buffer solution; 100 μl of diluted tracer was added thereto; and then the reaction was performed at room temperature for 1 hour. After completing the reaction, the plate was overturned and emptied; and then each well in the plate was washed using 200 μl of washing buffer solution. After repeatedly performing the washing processes three times using 200 μl of washing buffer solution, 100 μl of diluted streptavidin-peroxidase conjugate was added thereto, and then, the reaction was performed at room temperature for 1 hour. After completing the reaction, the plate was overturned and emptied, and then, each well in the plate was washed with 200 μl of washing buffer solution. After the washing processes were repeatedly performed three times using 200 μl of washing buffer solution, 100 μl of TMB substrate solution was added thereto; the plate was wrapped in an aluminum foil to block out the light; and then, the reaction was performed at room temperature for 30 minutes. Since then, 100 μl of a stop solution was added to stop the reaction, and then, the absorbance was measured at 450 nm using an ELISA reader.
(An ELISA detects its analyte on a solid surface through an enzyme-linked reagent.)

The test system of experiment [2] is IL-1 beta. The experiment in a line: IL-1 beta expression in colon tissue (ELISA), TNBS acute colitis, third experiment. Type of experiment: in vivo, male mice (C57BL/6). The note with it: Table 12; TNBS-treated mice, 10 mg/kg orally, 3 days. Here is the method: (§1) Meanwhile, 0.1 ml of normal saline solution was orally administered to the normal group. Since then, from the next day, the sample dissolved in normal saline solution was orally administered in the volume that was decided in advance one time a day for 3 days. At the next day after completing the sample administration, the experimental animals were suffocated to death with carbon dioxide, and the colon from appendix to the region just before the anus was removed from the colon region. At this time, as a medicine sample, the experiments using the butanol-soluble fraction of the Anemarrhena asphodeloides Bunge extract, Mangiferin, and a combined extract were separately performed at a distance of time, respectively, and the effects of the medicine samples on preventing or treating colitis were reasonably analyzed based on the group supplied with normal saline solution instead of a specific medicine in the model animals with acute colitis induced by TNBS for each of the experiments. […] While the supernatant was stored at −80° C., the expression amounts of IL-1 beta, IL-6, and TNF-alpha, which were proinflammatory cytokines, and the expression amount of IL-10, which was anti-inflammatory cytokine, were measured using a 96-well ELISA plate kits (Pierce Biotechology, Inc., Rockford, Ill., USA).

The test system of experiment [3] is IL-6. Put plainly: IL-6 expression in colon tissue (ELISA), TNBS acute colitis, third experiment. Type of experiment: in vivo, male mice (C57BL/6). The note with it: Table 12; TNBS-treated mice, 10 mg/kg orally, 3 days. Here is the method: as §1

Regarding `Nc1ccc(O)c(C(=O)O)c1` [mesalazine, Mesalazine], the MPO activity in experiment [1] (Table 2 (group 1)) turned out to be 1.8 ± 0.2 μUnit/mg; in experiment [1] (Table 3 (group 2)) it was 0.2 ± 0.1 μUnit/mg. Besides, the “IL-1β (Percentage to group supplied with normal saline solution after treating TNBS)” value in experiment [2] was found to be 30.3%. In addition, the “IL-6 (Percentage to group supplied with normal saline solution after treating TNBS)” value in experiment [3] is given as 26.6%.
